Measurements as given in patent publication US20250223307A1, “MDM2/MDMX DOUBLE-TARGET INHIBITOR COMPOUND, PRODRUG, PHARMACEUTICAL COMPOSITION, AND PREPARATION METHOD THEREFOR AND USE THEREOF” (GLOBAL HEALTH DRUG DISCOVERY INSTITUTE, priority 2022, published 2025).

How the values were obtained:
[1] = tested on: Blood cancer cells RS4; 11; assay: CellTiter Glo test: growth inhibition of cells; format: cell-based; conditions: Homo sapiens, 11 cells, 72 h, cell viability
Experimental: Test of Candidate Compounds on Growth Inhibition of Cells Determined by CellTiter Glo
Blood cancer cells RS4; 11 were inoculated into the 96-well cell culture plate through Multidrop 3000 cells per well, with a volume of 100 μL. The final compound concentration ranged from 50 μM to 0.01 μM at 9 concentration gradients and the DMSO final concentration was 0.1%. The cells and compounds were co-incubated in a cell incubator at 37° C. for 72 h, a CellTiter-Glo Luminescent Cell Viability Assay reagent was added 100 μL/well, the cells and compound were uniformly mixed and incubated at room temperature for 10 min, and Envision reading was performed. A sample treated with 50 μM of a positive compound was taken as a positive control and a sample treated with 100 nL of DMSO was taken as a negative control.

[2] = biological target: MDM2 (Homo sapiens, UniProt Q00987); assay: HTRF test: inhibition of MDM2-p53 protein binding
MDM2, sequence (Q00987 2-138): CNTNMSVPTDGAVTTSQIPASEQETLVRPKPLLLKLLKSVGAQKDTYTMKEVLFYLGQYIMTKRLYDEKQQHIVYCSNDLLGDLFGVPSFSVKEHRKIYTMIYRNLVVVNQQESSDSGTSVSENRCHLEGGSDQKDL

[3] = biological target: T1, MDMX (Homo sapiens, UniProt O15151); assay: HTRF test: inhibition of MDMX-p53 protein binding
T1 sequence (O15151 2-134): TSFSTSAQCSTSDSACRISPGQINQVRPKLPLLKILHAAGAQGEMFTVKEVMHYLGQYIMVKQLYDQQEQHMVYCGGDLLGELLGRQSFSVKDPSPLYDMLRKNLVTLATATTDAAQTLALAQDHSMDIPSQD

Row | IC50 [1] | IC50 [2] | IC50 [3] | SMILES
1 | ≤ 1000 nM | < 10 nM | < 10 nM | N#Cc1ccc(CN2C(=O)N/C(=C\c3c[nH]c4c(F)c(Cl)ccc34)C2=O)cc1 [Compound 16, (Z)-4-((4-((6-chloro-7-fluoro-1H-indol-3-yl)methylene)-2,5-dioxoimidazolidin-1-yl)methyl)benzonitrile]
2 |  | < 10 nM | 10 to 100 nM | O=C(NC(CO)CO)C(c1ccc(Cl)cc1)N1C(=O)N/C(=C\c2c[nH]c3cc(Cl)ccc23)C1=O (stereo not shown) [Compound 22, (Z)-2-(4-((6-chloro-1H-indol-3-yl)methylene)-2,5-dioxoimidazolidin-1-yl)-2-(4-chlorophenyl)-N-(1,3-dihydroxypropan-2-yl)acetamide]
3 |  | 10 to 100 nM | 10 to 100 nM | CCN(CC)CCNC(=O)C(c1ccc(Cl)cc1)N1C(=O)N/C(=C\c2c[nH]c3cc(Cl)ccc23)C1=O (stereo not shown) [Compound 23, (Z)-2-(4-((6-chloro-1H-indol-3-yl)methylene)-2,5-dioxoimidazolidin-1-yl)-2-(4-chlorophenyl)-N-(2-(diethylamino)ethyl)acetamide]
4 |  | 10 to 100 nM | 10 to 100 nM | COc1c(Cl)ccc2c(/C=C3\NC(=O)N(C(C)c4ccc(F)c(F)c4)C3=O)c[nH]c12 (stereo not shown) [Compound 25, (Z)-5-((6-chloro-7-methoxyl-1H-indol-3-yl)methylene)-3-(1-(3,4-difluorophenyl)ethyl)imidazolidine-2,4-dione]
5 | 1000 to 10000 nM |  |  | Cc1c(Cl)ccc2c(/C=C3\NC(=O)N(C(CO)c4ccc(F)c(F)c4)C3=O)c[nH]c12 (stereo not shown) [Compound 39, (Z)-5-((6-chloro-7-methyl-1H-indol-3-yl)methylene)-3-(1-(3,4-difluorophenyl)-2-hydroxyethyl)imidazolidine-2,4-dione]
6 |  | 10 to 100 nM | 10 to 100 nM | Cc1c(Cl)ccc2c(/C=C3\NC(=O)N(C(COP(=O)(O)O)c4ccc(F)c(F)c4)C3=O)c[nH]c12 (stereo not shown) [Compound 43, (Z)-2-(4-((6-chloro-7-methyl-1H-indol-3-yl)methylene)-2,5-dioxoimidazolidin-1-yl)-2-(3,4-difluorophenyl)ethyl dihydrophosphate]
7 |  | < 10 nM | < 10 nM | Cc1c(Cl)ccc2c(/C=C3\NC(=O)N(C(C(=O)NCCOP(=O)(O)O)c4ccc(F)c(F)c4)C3=O)c[nH]c12 (stereo not shown) [Compound 44, (Z)-2-(2-(4-((6-chloro-7-methyl-1H-indol-3-yl)methylene)-2,5-dioxoimidazolidin-1-yl)-2-(3,4-difluorophenyl)acetamido)dihydroethyl phosphate]
8 |  | > 100 nM | 10 to 100 nM | Cc1c(Cl)ccc2c(/C=C3\NC(=O)N(C(C(=O)NC(COP(=O)(O)O)COP(=O)(O)O)c4ccc(F)c(F)c4)C3=O)c[nH]c12 (stereo not shown) [Compound 74, (Z)-2-(2-(4-((6-chloro-7-methyl-1H-indol-3-yl)methylene)-2,5-dioxoimidazolidin-1-yl)-2-(3,4-difluorophenyl)acetamido)propane-1,3-diylbis(dihydrophosphate)]
9 |  | 10 to 100 nM | 10 to 100 nM | Cc1c(Cl)ccc2c(/C=C3\NC(=O)N(C(COP(=O)(O)O)c4ccc(C#N)cc4)C3=O)c[nH]c12 (stereo not shown) [Compound 92, (Z)-2-(4-((6-chloro-7-methyl-1H-indol-3-yl)methylene)-2,5-dioxoimidazolidin-1-yl)-2-(4-cyanophenyl)ethyl dihydrophosphate]
10 |  | < 10 nM | < 10 nM | O=C1N/C(=C\c2c[nH]c3cc(Cl)ccc23)C(=O)N1[C@H](COP(=O)(O)O)c1ccc(F)c(F)c1 [Compound 94, (S,Z)-2-(4-((6-chloro-1H-indol-3-yl)methylene)-2,5-dioxoimidazolidin-1-yl)-2-(3,4-difluorophenyl)dihydroethyl phosphate]
11 |  | 10 to 100 nM | 10 to 100 nM | O=C1N/C(=C\c2c[nH]c3cc(Cl)ccc23)C(=O)N1[C@@H](COP(=O)(O)O)c1ccc(F)c(F)c1 [Compound 95, (R,Z)-2-(4-((6-chloro-1H-indol-3-yl)methylene)-2,5-dioxoimidazolidin-1-yl)-2-(3,4-difluorophenyl)dihydroethyl phosphate]
12 | ≤ 1000 nM |  |  | O=C1N/C(=C\c2c[nH]c3c(F)c(Cl)ccc23)C(=O)N1C(CCO)c1ccc(Cl)cc1 (stereo not shown) [Compound 108, (Z)-5-((6-chloro-7-fluoro-1H-indol-3-yl)methylene)-3-(1-(4-chlorophenyl)-3-hydroxypropyl)imidazolidine-2,4-dione]

Further lines, the compound ahead of its results:

Row | SMILES | IC50 [1] | IC50 [2] | IC50 [3]
13 | O=C1N/C(=C\c2c[nH]c3cc(Cl)ccc23)C(=O)N1Cc1ccc(F)c(F)c1 [Compound 1, (Z)-5-((6-chloro-1H-indol-3-yl)methylene)-3-(3,4-difluorobenzyl)imidazolidine-2,4-dione] | 1000 to 10000 nM | 10 to 100 nM | 10 to 100 nM
14 | O=C1N/C(=C\c2c[nH]c3cc(Cl)ccc23)C(=O)N1Cc1ccc(Cl)cc1 [Compound 2, (Z)-5-((6-chloro-1H-indol-3-yl)methylene)-3-(4-chlorobenzyl)imidazolidine-2,4-dione] | ≤ 1000 nM | 10 to 100 nM | 10 to 100 nM
15 | O=C1N/C(=C\c2c[nH]c3cc(Cl)ccc23)C(=O)N1Cc1ccc(F)cc1 [Compound 3, (Z)-5-((6-chloro-1H-indol-3-yl)methylene)-3-(4-fluorobenzyl)imidazolidine-2,4-dione] | ≤ 1000 nM | 10 to 100 nM | 10 to 100 nM
16 | N#Cc1ccc(CN2C(=O)N/C(=C\c3c[nH]c4cc(Cl)ccc34)C2=O)cc1 [Compound 4, (Z)-4-((4-((6-chloro-1H-indol-3-yl)methylene)-2,5-dioxoimidazolidin-1-yl)methyl)benzonitrile] | ≤ 1000 nM | 10 to 100 nM | 10 to 100 nM
17 | O=C1N/C(=C\c2c[nH]c3cc(Br)ccc23)C(=O)N1Cc1ccc(Cl)cc1 [Compound 5, (Z)-5-((6-bromo-1H-indol-3-yl)methylene)-3-(4-chlorobenzyl)imidazolidine-2,4-dione] | 1000 to 10000 nM | 10 to 100 nM | 10 to 100 nM
18 | O=C1N/C(=C\c2c[nH]c3c(OCF)c(Cl)ccc23)C(=O)N1Cc1ccc(F)c(F)c1 [Compound 6, (Z)-5-((6-chloro-7-(fluoromethoxyl)-1H-indol-3-yl)methylene)-3-(3,4-difluorobenzyl)imidazolidine-2,4-dione] |  | 10 to 100 nM | 10 to 100 nM
19 | O=C1N/C(=C\c2c[nH]c3c(Cl)c(Cl)ccc23)C(=O)N1Cc1ccc(F)c(F)c1 [Compound 7, (Z)-5-((6,7-dichloro-1H-indol-3-yl)methylene)-3-(3,4-difluorobenzyl)imidazolidine-2,4-dione] |  | 10 to 100 nM | 10 to 100 nM
20 | COc1c(Cl)ccc2c(/C=C3\NC(=O)N(Cc4ccc(F)c(F)c4)C3=O)c[nH]c12 [Compound 8, (Z)-5-((6-chloro-7-methoxyl-1H-indol-3-yl)methylene)-3-(3,4-difluorobenzyl)imidazolidine-2,4-dione] | 1000 to 10000 nM | 10 to 100 nM | 10 to 100 nM
21 | CSc1c(Cl)ccc2c(/C=C3\NC(=O)N(Cc4ccc(F)c(F)c4)C3=O)c[nH]c12 [Compound 9] | > 10000 nM | 10 to 100 nM | 10 to 100 nM
22 | O=C1N/C(=C\c2c[nH]c3c(F)c(Cl)ccc23)C(=O)N1Cc1ccc(F)c(F)c1 [Compound 10, (Z)-5-((6-chloro-7-fluoro-1H-indol-3-yl)methylene)-3-(3,4-difluorobenzyl)imidazolidine-2,4-dione] | 1000 to 10000 nM | 10 to 100 nM | 10 to 100 nM
23 | N#Cc1ccc(CN2C(=O)N/C(=C\c3c[nH]c4c(OCF)c(Cl)ccc34)C2=O)cc1F [Compound 11, (Z)-4-((4-((6-chloro-7-(fluoromethoxyl)-1H-indol-3-yl)methylene)-2,5-dioxoimidazolidin-1-yl)methyl)-2-fluorobenzonitrile] | 1000 to 10000 nM | < 10 nM | 10 to 100 nM
24 | O=C1N/C(=C\c2c[nH]c3c(OCF)c(Cl)ccc23)C(=O)N1Cc1ccc(Cl)cc1 [Compound 12, (Z)-5-((6-chloro-7-(fluoromethoxyl)-1H-indol-3-yl)methylene)-3-(4-chlorobenzyl)imidazolidine-2,4-dione] | > 10000 nM | 10 to 100 nM | 10 to 100 nM
25 | N#Cc1ccc(CN2C(=O)N/C(=C\c3c[nH]c4c(OCF)c(Cl)ccc34)C2=O)cc1 [Compound 13, (Z)-4-((4-((6-chloro-7-(fluoromethoxyl)-1H-indol-3-yl)methylene)-2,5-dioxoimidazolidin-1-yl)methyl)benzonitrile] | > 10000 nM | < 10 nM | 10 to 100 nM
26 | N#Cc1ccc(CN2C(=O)N/C(=C\c3c[nH]c4c(F)c(Cl)ccc34)C2=O)cc1F [Compound 14, (Z)-4-((4-((6-chloro-7-fluoro-1H-indol-3-yl)methylene)-2,5-dioxoimidazolidin-1-yl)methyl)-2-fluorobenzonitrile] | ≤ 1000 nM | < 10 nM | < 10 nM
27 | O=C1N/C(=C\c2c[nH]c3c(F)c(Cl)ccc23)C(=O)N1Cc1ccc(Cl)cc1 [Compound 15, (Z)-5-((6-chloro-7-fluoro-1H-indol-3-yl)methylene)-3-(4-chlorobenzyl)imidazolidine-2,4-dione] | ≤ 1000 nM | 10 to 100 nM | 10 to 100 nM
28 | O=C1N/C(=C\c2c[nH]c3c(F)c(Cl)ccc23)C(=O)N1C(CCCO)c1ccc(Cl)cc1 (stereo not shown) [Compound 109, (Z)-5-((6-chloro-7-fluoro-1H-indol-3-yl)methylene)-3-(1-(4-chlorophenyl)-4-hydroxybutyl)imidazolidine-2,4-dione] | ≤ 1000 nM |  | 
